Assay results taken from PMC6149822, “A New Series of Pyrrole-Based Chalcones: Synthesis and Evaluation of Antimicrobial Activity, Cytotoxicity, and Genotoxicity” (Molecules : A Journal of Synthetic Chemistry and Natural …, 2017).
Values after ≈ are worked out from the molar mass of the structure shown. Marks after values point to notes of the source that are not given here.

Assays:
C. krusei (ATCC 6258) = test: Microdilution susceptibility assay (MIC); type: cell-based, Candida krusei; settings: Pichia kudriavzevii, ATCC6258
Method: Compounds 1–10 were screened for their antimicrobial activity against gram-negative bacteria, gram-positive bacteria, and yeasts, listed in Table 1. Bacteria were grown in Mueller-Hinton Broth and yeasts were grown in Sabouraud Dextrose Broth (SDB) during experiments. Overnight cultures were prepared routinely by subculturing of stock culture onto Mueller-Hinton Agar for bacteria and Sabouraud Dextrose Agar for yeasts.
Microdilution susceptibility assay was used for the determination of antibacterial and anticandidal efficacy of compounds 1–10. Chloramphenicol and ketoconazole were used as positive controls for bacteria and yeasts, respectively. All experiments were designed according to the Clinical Laboratory Standards Institute (CLSI). All chemicals were dissolved in dimethyl sulfoxide (DMSO) to obtain stock solution (10 mg/mL). Two-fold serial dilutions (800, 400, 200...0.78 µg/mL) of the compounds were prepared from stock solutions with dH2O. 100 µL of each solution was transferred to 96-well microtiter plates and 100 µL of 10^6 CFU/mL of bacteria and 2 × 10^3 of CFU/mL yeast were added to related wells. As negative controls, wells including microorganisms without agents and wells including agents without microorganisms were used. The plates were kept at 35 °C for 18–20 h and the growth was determined with resazurin (20 mg/mL). Assays were carried out in triplicate.

C. krusei cells = test: Flow cytometry live/dead analysis (TO/PI); type: cell-based, Candida krusei; settings: 25 µg/mL, 4 h
Description: In order to investigate the effects of compounds 7 and 9 on the integrity of C. krusei cells, flow cytometry was used with BD cell viability kits. Live cells are impermeable to dyes such as PI since they have intact membranes. TO is a permeant dye and enters live and dead cells to varying degrees. The fluorescent signal from TO in viable cells allows their enumeration, even when debris in the cell preparation contaminates a scatter gate around the cells. Thus, the combination of these two dyes provides a rapid and reliable method for discriminating live and dead eukaryotic cells, including yeasts. All steps were performed according to manufacturers’ recommendations. Briefly, Candida cells were cultured at 35 °C in SDB until late log phase. The cells were centrifuged and washed with phosphate-buffered saline (PBS) at pH = 7.0. Suspensions containing 2 × 10^3 cells/mL were incubated with compounds 7 and 9, and ketoconazole as a reference drug, for 4 h at 35 °C, with shaking (200 r.p.m.). […] Suspensions of treated and untreated cells were incubated for 30 min in the presence of 2 µL of PI and 2 µL of TO, in the dark, at room temperature. The cell suspensions were analysed in a BD Accuri C6 flow cytometer (Becton-Dickinson, Mansfield, MA, USA). The cell scattergram (forward scatter: FS, side scatter: SS), the autofluorescence (without fluorocrome), and the intensity of fluorescence at FL1 (green fluorescence, 525 nm) and FL2 (red fluorescence, 620 nm) were recorded using a logarithmic scale.

[1] = test system: Salmonella typhimurium TA100; test: Ames MPF mutagenicity assay; type: cell-based; settings: for Revertants fold increase (over baseline) TA 100 S9+: with S9; for Revertants fold increase (over baseline) TA 100 S9−: without S9; for Genotoxicity classification (Ames MPF): TA100, with/without metabolic activation, 0.16-5 mg/mL
Method: (§1) An Ames MPF 98/100 mutagenicity assay sample kit (Xenometrix AG, Allschwil, Switzerland) was used to evaluate the genotoxicity of compounds 7 and 9 as described previously. Salmonella typhimurium TA98 (frameshift mutations) and TA100 (base-pair substitutions) strains were used and the compounds were tested in concentrations between […] and 5000 μg/mL (5.0, 2.5, 1.25, 0.625, 0.3125, 0.156 mg/mL in DMSO) in accordance with the guidelines. Mutagenity was tested with/without metabolic activation with an Aroclor™-1254 induced male Sprague–Dawley rat liver microsomal enzyme (S9) mix (Xenometrix AG, Allschwil, Switzerland). 2-Nitrofluorene (2.0 μg/mL) and 4-nitroquinoline N-oxide (0.1 μg/mL) were used without S9, and 1.0 μg/mL and 2.5 μg/mL of 2-aminoanthracene solutions were used with S9 against TA98 and TA100 as positive controls, respectively. At the end of each experiment, yellow wells were counted as positive and compared with the negative control. Fold induction over the negative control and fold induction over the baseline were calculated as described: Fold induction over the negative control is the ratio of the mean number of positive wells for the dose concentration divided by the mean number of positive wells for the zero-dose (negative) control. Fold induction over the baseline is the ratio of the mean number of positive wells for the dose concentration divided by the zero-dose baseline. The zero-dose baseline is obtained by adding one standard deviation to the mean number of positive wells of the zero-dose control. If the baseline is less than one, the value is set to one for calculation.
(§2) Genotoxicity was determined according to the previous criteria. For a baseline value of ≤3, significant increases between 2- and 3-fold of the baseline were classified as weak mutagens, and increases ≥3-fold of the baseline were classified as mutagens. For a baseline value of >3, significant increases between 1.5- and 2.5-fold of the baseline were classified as weak mutagens, and increases ≥2.5-fold of the baseline were classified as mutagens. At least two adjacent doses with significant increases, or a significant increase at the highest dose level, should be observed for a mutagenic compound. All of the doses were compared according to Student’s t-test at p < 0.05 for statistical significance.

[2] = test system: Salmonella typhimurium TA98; test: Ames MPF mutagenicity assay; type: cell-based; settings: for Revertants fold increase (over baseline) TA 98 S9+: with S9; for Revertants fold increase (over baseline) TA 98 S9−: without S9; for Genotoxicity classification (Ames MPF): TA98, with/without metabolic activation, 0.16-5 mg/mL
Method: as §1, §2

Row | SMILES | MIC (C. krusei (ATCC 6258)) | Dead Cell % (C. krusei cells) | Live Cell % (C. krusei cells) | Revertants fold increase (over baseline) TA 100 S9+ ([1]; 0.16 mg/mL) | Revertants fold increase (over baseline) TA 100 S9− ([1]; 0.16 mg/mL) | Revertants fold increase (over baseline) TA 100 S9+ ([1]; 0.31 mg/mL) | Revertants fold increase (over baseline) TA 100 S9− ([1]; 0.31 mg/mL) | Revertants fold increase (over baseline) TA 100 S9+ ([1]; 0.63 mg/mL) | Revertants fold increase (over baseline) TA 100 S9− ([1]; 0.63 mg/mL) | Revertants fold increase (over baseline) TA 100 S9+ ([1]; 1.25 mg/mL) | Revertants fold increase (over baseline) TA 100 S9− ([1]; 1.25 mg/mL) | Revertants fold increase (over baseline) TA 100 S9+ ([1]; 2.5 mg/mL) | Revertants fold increase (over baseline) TA 100 S9− ([1]; 2.5 mg/mL) | Revertants fold increase (over baseline) TA 100 S9+ ([1]; 5 mg/mL) | Revertants fold increase (over baseline) TA 100 S9− ([1]; 5 mg/mL) | Genotoxicity classification (Ames MPF) [1] | Revertants fold increase (over baseline) TA 98 S9+ ([2]; 0.16 mg/mL) | Revertants fold increase (over baseline) TA 98 S9− ([2]; 0.16 mg/mL) | Revertants fold increase (over baseline) TA 98 S9+ ([2]; 0.31 mg/mL) | Revertants fold increase (over baseline) TA 98 S9− ([2]; 0.31 mg/mL) | further results
1 | Cn1cccc1C(=O)C=Cc1ccc(-c2ccc(Cl)cc2)o1 [Compound 7, 1-(1-Methyl-1H-pyrrol-2-yl)-3-(5-(4-chlorophenyl)furan-2-yl)prop-2-en-1-one] | 25 µg/mL (≈ 80.2 µM) | 20.0% | 79.6% | 0.56 | 0.44 | 0.68 | 0.56 | 0.79 | 0.67 | 0.62 | 0.33 | 0.90 | 0.33 | 0.79 | 0.44 | non-genotoxic | 0.68 | 0.66 | 0.76 | 0.33 | Revertants fold increase (over baseline) TA 98 S9+ ([2]; 0.63 mg/mL): 1.01; Revertants fold increase (over baseline) TA 98 S9− ([2]; 0.63 mg/mL): 0.44; Revertants fold increase (over baseline) TA 98 S9+ ([2]; 1.25 mg/mL): 0.68; Revertants fold increase (over baseline) TA 98 S9− ([2]; 1.25 mg/mL): 0.66; Revertants fold increase (over baseline) TA 98 S9+ ([2]; 2.5 mg/mL): 0.51; Revertants fold increase (over baseline) TA 98 S9− ([2]; 2.5 mg/mL): 0.33; Revertants fold increase (over baseline) TA 98 S9+ ([2]; 5 mg/mL): 0.25; Genotoxicity classification (Ames MPF) [2]: non-genotoxic
2 | Cn1cccc1C(=O)C=Cc1ccc(-c2cc(Cl)ccc2Cl)o1 [Compound 9, 1-(1-Methyl-1H-pyrrol-2-yl)-3-(5-(2,5-dichlorophenyl)furan-2-yl)prop-2-en-1-one] | 25 µg/mL (≈ 72.2 µM) | 15.9% | 83.9% | 0.51 | 0.48 | 0.73 | 0.54 | 0.68 | 0.54 | 0.68 | 0.54 | 0.79 | 0.30 * | 0.90 | 0.12 * | non-genotoxic | 0.51 | 0.89 | 0.79 | 0.83 | Revertants fold increase (over baseline) TA 98 S9+ ([2]; 0.63 mg/mL): 0.34 *; Revertants fold increase (over baseline) TA 98 S9− ([2]; 0.63 mg/mL): 0.89; Revertants fold increase (over baseline) TA 98 S9+ ([2]; 1.25 mg/mL): 0.39; Revertants fold increase (over baseline) TA 98 S9− ([2]; 1.25 mg/mL): 1.07; Revertants fold increase (over baseline) TA 98 S9+ ([2]; 2.5 mg/mL): 0.79; Revertants fold increase (over baseline) TA 98 S9− ([2]; 2.5 mg/mL): 0.24 *; Revertants fold increase (over baseline) TA 98 S9+ ([2]; 5 mg/mL): 0.51; Revertants fold increase (over baseline) TA 98 S9− ([2]; 5 mg/mL): 0.54; Genotoxicity classification (Ames MPF) [2]: non-genotoxic
